# US20020061839A1, “Serine peptidase modulators” (priority 1998, published 2002)
# “Also recorded” adds a separate entry of the source.
# Tests used:
# [1] = biological target: T1, Prolyl oligopeptidase (Homo sapiens, UniProt P48147); experiment: Inhibition of prolyl oligopeptidase (PO), Z-Gly-Pro-AMC substrate; assay type: biochemical; conditions: PO from human platelets, 20 min at 37° C.
# T1 construct: Prolyl oligopeptidase was purified from human platelets; from tissue; host or cells: human platelets
# T1 sequence (P48147 1-710): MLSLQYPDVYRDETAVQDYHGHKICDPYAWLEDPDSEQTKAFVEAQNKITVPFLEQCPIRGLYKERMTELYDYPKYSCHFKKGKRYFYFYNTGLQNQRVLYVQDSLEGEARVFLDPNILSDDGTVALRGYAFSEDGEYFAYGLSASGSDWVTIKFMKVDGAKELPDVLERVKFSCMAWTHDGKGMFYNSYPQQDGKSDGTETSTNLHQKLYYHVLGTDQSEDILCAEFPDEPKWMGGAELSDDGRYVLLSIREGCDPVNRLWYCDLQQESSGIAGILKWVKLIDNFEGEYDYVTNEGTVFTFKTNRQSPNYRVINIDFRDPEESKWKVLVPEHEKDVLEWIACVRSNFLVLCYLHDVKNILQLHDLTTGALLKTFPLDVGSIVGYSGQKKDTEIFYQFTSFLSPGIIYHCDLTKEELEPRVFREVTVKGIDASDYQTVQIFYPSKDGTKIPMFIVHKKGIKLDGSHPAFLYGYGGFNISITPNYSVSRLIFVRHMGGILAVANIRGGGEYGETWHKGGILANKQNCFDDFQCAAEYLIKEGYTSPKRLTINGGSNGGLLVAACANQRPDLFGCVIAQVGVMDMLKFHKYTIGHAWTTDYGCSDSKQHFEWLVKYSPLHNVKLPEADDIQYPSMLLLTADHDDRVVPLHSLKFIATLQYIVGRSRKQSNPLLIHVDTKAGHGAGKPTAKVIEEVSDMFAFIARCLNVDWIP
# Method: Prolyl oligopeptidase was purified from human platelets and the enzyme activity was measured using Z—Gly—Pro—AMC (4.4 mM) as the substrate in a K-phosphate buffer 100 mM, pH 7.5 containing 1 EM EDTA, 1 mM dithiothreitol and 1 mM NaN3. The incubation was carried out during 20 min at 37° C. The reaction was stopped by the addition of 5 volumes 1.5 M acetic acid. Fluorescence was measured at 370 and 440 nm as excitation and emission wavelengths respectively. The inhibitors were added at concentrations varying between 1 μM and 1 mM.
# [2] = Systemic and local toxicity in rats; assay type: in vivo; conditions: for acute systemic or local toxicity: daily subcutaneous injection of 50 mg/kg (initial dose 100 mg/kg)
# Method: They received standard diet and water ad lib. […] Blood was sampled from the central ear artery. Rats and mice were injected subcutaneously or intraperitoneally.
# [3] = tested on: human peripheral blood mononuclear cells (PBMC); experiment: In vitro cytotoxicity in PBMC, trypan blue exclusion; assay type: cell-based; conditions: freshly isolated mononuclear cells or phytohemagglutinin stimulated blasts, concentrations up to 100 μM
# Method: Peripheral blood mononuclear cells were isolated from buffy coats (obtained from the blood transfusion center of Antwerp). After dilution (¼) in phosphate buffer saline (PBS), cells were layered onto Ficoll-Hypaque density gradient (Pharmacia, Uppsala, Sweden) and centrifuged at room temperature at 550×g during 20 min. The interfaces were collected and washed 3 times in RPMI-1640. Finally the cells were resuspended at 1×10^6 cells/mL in RPMI-1640 containing 10% heat-inactivated foetal calf serum, and antibiotics (penicillin/streptomycin) (Gibco). These freshly isolated cells were used immediately for inhibitor studies or first stimulated with phytohaemagglutinin (Murex diagnostics) at 1 μg/mL during 3 days at 37° C. in a 5% CO2 humidified incubator. Inhibitor (stock solution at −80° C. in phosphate buffer, diluted ex tempore in RPMI-1640) or vehicle alone was added to the cells (5×10^6/test) at different concentrations. After overnight incubation at 37° C., an aliquot was taken for cytotoxicity evaluation by 0.4% trypan blue exclusion. The remaining cells were washed 3 times in PBS and the final cell pellet was solubilised in 200 μL PBS containing 1% v/v Triton X-100 and 100 KIU/mL aprotinin (Bayer) and centrifuged during 10 min at 20000×g. Supernatants were used immediately for enzyme assay and protein determination by the Bradford micro-assay. Specific activities (U/g protein) are compared and the % inhibition is given toward control samples without inhibitor.
# [4] = in vitro; conditions: human, plasma
# [5] = Side effects in rabbits after intravenous injection; assay type: in vivo; conditions: single intravenous injection of 0.2 mg/kg
# Method: […]. They received standard diet and water ad lib. […] Blood was sampled from the central ear artery. Rats and mice were injected subcutaneously or intraperitoneally.
# [6] = Graft acceptance upon alloantigen challenge; assay type: in vivo, rats; conditions: monotherapy
# [7] = biological target: Dipeptidyl peptidase II; conditions: DPP II semi-purified from rabbit kidney, pH 5.5, 20 minutes at 37° C.
# Method: After incubation during 20 minutes at 37° C., the reaction was stopped by the addition of 10 fold excess sodium-acetate pH 3.6.
structure (smiles),measurement,setting,value
"C[C@H](NC(=O)OCc1ccccc1)C(=O)Nc1ccc(OP(=O)(Oc2ccc(NC(=O)[C@H](C)NC(=O)OCc3ccccc3)cc2)C2CCCN2C(=O)[C@@H]2CCCN2C(=O)OCc2ccccc2)cc1 (mixture of isomers) [10j, Di[4-(N-benzyloxycarbonyl-(S)-alanylamino)phenyl]-1-(benzyloxycarbonyl-(S)-prolyl)pyrrolidine-2(R,S)-phosphonate]",IC50,[1],> 500 µM
same,melting point,,200 to 203 °C
"O=C1CC[C@@H](C(=O)Nc2ccc(OP(=O)(Oc3ccc(NC(=O)[C@@H]4CCC(=O)N4)cc3)C3CCCN3C(=O)[C@@H]3CCCN3C(=O)OCc3ccccc3)cc2)N1 (mixture of isomers) [10k, Di[4-((S)-pyroglutamylamino)phenyl]-1-(benzyloxycarbonyl-(S)-prolyl)pyrrolidine-2(R,S)-phosphonate]",IC50,[1],9 µM
same,melting point,,170 °C (dec.)
"CC(=O)Nc1ccc(OP(=O)(Oc2ccc(NC(C)=O)cc2)C2CCCN2C(=O)[C@@H]2CCCN2)cc1.Cl (mixture of isomers) [11e, Di(4-acetamidophenyl) 1-((S)-prolyl)pyrrolidine-2(R,S)-phosphonate hydrochloride]",acute systemic or local toxicity,"[2]; rats, hydrochloride",without any sign of acute systemic or local toxicity; also recorded: no acute systemic or local toxicity
same,cytotoxicity,[3]; hydrochloride,no cytotoxicity; also recorded: did not show cytotoxicity
"CCOC(=O)CNC(=O)c1ccc(OP(=O)(Oc2ccc(C(=O)NCC(=O)OCC)cc2)C2CCCN2C(=O)[C@@H]2CCCN2)cc1 (mixture of isomers) [11n, Di{4-[(ethoxycarbonyl)methylaminocarbonyl]phenyl}1-((S)-prolyl)pyrrolidine-2(R,S)-phosphonate]",acute systemic or local toxicity,[2]; rats,without any sign of acute systemic or local toxicity; also recorded: no acute systemic or local toxicity
same,half-life at 1 mM,[4],0.583 ± 0.0333 h
same,side effects,[5],without side effects
same,cytotoxicity,[3],did not show cytotoxicity; also recorded: no cytotoxicity
"O=C([C@@H]1CCCN1)N1CCCC1P(=O)(Oc1ccccc1)Oc1ccccc1 (mixture of isomers) [compound 5, diphenyl 1-(S)-prolyl-pyrrolidine-2-(R,S)-phosphonate]",graft acceptance,[6],significantly prolonged graft acceptance
same,systemic toxicity and local ulcerations,[2]; monotherapy,occasionally also caused systemic toxicity and more often local ulcerations
same,systemic toxicity,"[2]; rats, intravenously",adequate inhibition could not be reached without severe systemic toxicity
same,half-life at 1 mM,[4],4.17 ± 0.167 h
"Cl.O=C([C@@H]1CCCN1)N1CCC[C@H]1P(=O)(Oc1ccccc1)Oc1ccccc1 [11a (R), Diphenyl 1-((S)-prolyl)pyrrolidine-2(R)-phosphonate hydrochloride]",half-life at 1 mM,[4],5 ± 0.5 h
same,cytotoxicity,[3],no satisfactory inhibition of DPP IV activity could be reached without cytotoxic effects
"CC(NC(=O)[C@@H](N)Cc1ccccc1)P(=O)(Oc1ccccc1)Oc1ccccc1 (stereo partly drawn) [Phe-AlaP(OPh)2, Diphenyl 1(R,S)-L-phenylalanyl aminoethane phosphonate]",IC50,[7],800 µM
"CC(NC(=O)[C@@H]1CCCN1)P(=O)(Oc1ccccc1)Oc1ccccc1 (stereo partly drawn) [Pro-AlaP(OPh)2, diphenyl 1(R,S)-L-prolyl aminoethane phosphonate]",IC50,[7],1500 µM
